Data reported in ChEMBL document CHEMBL2331316, “Highly potent and selective cannabinoid receptor 2 agonists: initial hit optimization of an adamantyl hit series identified from high-through-put screening” (Bioorg Med Chem Lett, 2013).
Values after ≈ are worked out from the molar mass of the structure shown.

Columns and labels:
[1] = target: T1, Cannabinoid receptor 1 (Homo sapiens, UniProt P21554); experiment: Agonist activity at human CB1 receptor by cAMP read-out assay; format: functional
[2] = target: T2, Cannabinoid receptor 2 (Homo sapiens, UniProt P34972); experiment: Agonist activity at human CB2 receptor by beta-arrestin recruitment assay
[3] = target: T2, Cannabinoid receptor 2; experiment: Agonist activity at human CB2 receptor by cAMP read-out assay; format: functional
[4] = target: T1, Cannabinoid receptor 1; experiment: Binding affinity to CB1 receptor (unknown origin)
[5] = target: T2, Cannabinoid receptor 2; experiment: Binding affinity to CB2 receptor (unknown origin)
[6] = Metabolic stability in human microsomes assessed as maximal achievable bioavailability; format: ADME, Microsome; details: read-out: Stability
[7] = Permeability, Pe of the compound assessed as drug accumulation; format: ADME; details: not told; read-out: permeability
[8] = Permeability, Pe of the compound; format: ADME; details: not told; read-out: permeability
[9] = Lipophilicity, log D of the compound; format: physicochemical; details: octanol/water
[10] = Solubility, of the compound by LYSA assay; format: physicochemical
[11] = target: Cannabinoid receptor 1 (Mus musculus, UniProt P47746); experiment: Agonist activity at mouse CB1 receptor by cAMP read-out assay; format: functional
[12] = target: T3, Cannabinoid receptor 2 (Mus musculus, UniProt P47936); experiment: Binding affinity to mouse CB2 receptor
[13] = target: T2, Cannabinoid receptor 2; experiment: Binding affinity to human CB2 receptor
[14] = target: Cannabinoid receptor 2 (Homo sapiens, UniProt P34972, Q63R); experiment: Agonist activity at human CB2 receptor Q63R mutant
[15] = target: T3, Cannabinoid receptor 2; experiment: Agonist activity at mouse CB2 receptor by cAMP read-out assay; format: functional

T2 sequence (P34972 whole entry): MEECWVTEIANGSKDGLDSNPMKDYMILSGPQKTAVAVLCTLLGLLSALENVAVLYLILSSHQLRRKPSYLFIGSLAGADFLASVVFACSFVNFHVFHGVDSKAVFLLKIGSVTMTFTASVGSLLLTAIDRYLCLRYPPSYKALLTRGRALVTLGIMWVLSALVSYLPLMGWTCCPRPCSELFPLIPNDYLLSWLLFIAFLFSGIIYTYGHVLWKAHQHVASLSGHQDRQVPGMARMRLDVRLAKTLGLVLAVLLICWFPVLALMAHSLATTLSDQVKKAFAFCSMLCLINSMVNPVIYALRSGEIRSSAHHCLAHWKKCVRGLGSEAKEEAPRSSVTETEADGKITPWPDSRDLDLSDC
T1 sequence (P21554 whole entry): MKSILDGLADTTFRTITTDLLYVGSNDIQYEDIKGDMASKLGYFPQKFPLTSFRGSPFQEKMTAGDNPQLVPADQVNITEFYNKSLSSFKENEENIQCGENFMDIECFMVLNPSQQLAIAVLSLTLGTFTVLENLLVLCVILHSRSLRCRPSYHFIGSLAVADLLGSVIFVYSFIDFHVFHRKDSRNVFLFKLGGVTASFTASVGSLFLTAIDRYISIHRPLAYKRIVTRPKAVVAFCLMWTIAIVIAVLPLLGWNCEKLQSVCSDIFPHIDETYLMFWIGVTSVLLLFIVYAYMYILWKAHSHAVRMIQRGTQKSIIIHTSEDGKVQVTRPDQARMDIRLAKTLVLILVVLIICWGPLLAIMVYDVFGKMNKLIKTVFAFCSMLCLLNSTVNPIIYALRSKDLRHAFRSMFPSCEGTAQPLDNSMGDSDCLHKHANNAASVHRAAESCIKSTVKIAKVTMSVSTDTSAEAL
T3 sequence (P47936 whole entry): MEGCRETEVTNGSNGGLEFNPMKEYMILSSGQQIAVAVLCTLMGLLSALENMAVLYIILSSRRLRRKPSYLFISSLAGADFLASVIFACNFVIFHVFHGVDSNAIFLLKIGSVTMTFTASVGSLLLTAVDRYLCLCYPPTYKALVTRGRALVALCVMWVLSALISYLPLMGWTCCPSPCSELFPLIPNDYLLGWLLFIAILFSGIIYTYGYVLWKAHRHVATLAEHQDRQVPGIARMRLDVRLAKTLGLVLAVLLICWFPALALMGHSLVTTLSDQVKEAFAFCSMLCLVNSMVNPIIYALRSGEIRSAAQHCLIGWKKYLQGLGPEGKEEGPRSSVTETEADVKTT
Cannabinoid receptor 1 (Mus musculus, UniProt P47746), sequence (P47746 whole entry): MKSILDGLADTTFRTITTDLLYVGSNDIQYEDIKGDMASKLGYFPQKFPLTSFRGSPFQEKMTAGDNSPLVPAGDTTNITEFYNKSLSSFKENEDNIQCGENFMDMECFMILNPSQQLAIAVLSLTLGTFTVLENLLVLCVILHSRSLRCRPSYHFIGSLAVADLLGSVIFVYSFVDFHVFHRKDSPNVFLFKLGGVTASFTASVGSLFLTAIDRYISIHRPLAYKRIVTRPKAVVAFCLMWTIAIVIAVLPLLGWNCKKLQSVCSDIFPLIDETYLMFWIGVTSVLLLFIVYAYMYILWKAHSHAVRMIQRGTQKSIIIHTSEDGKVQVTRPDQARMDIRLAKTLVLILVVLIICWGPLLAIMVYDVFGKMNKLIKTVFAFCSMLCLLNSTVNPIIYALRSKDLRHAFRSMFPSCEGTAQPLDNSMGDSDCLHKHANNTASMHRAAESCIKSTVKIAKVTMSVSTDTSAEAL
Cannabinoid receptor 2 (Homo sapiens, UniProt P34972, Q63R), sequence (P34972 whole entry Q63R): as the sequence (P34972 whole entry) above, with Q63R counted along it

O=C(NC(=S)N1CCCCC1)C12CC3CC(CC(C3)C1)C2
EC50 [1]: > 10000 nM
EC50 [2]: 500 nM
EC50 [3]: 1400 nM

Cc1csc(NC(=O)C23CC4CC(CC(C4)C2)C3)n1
EC50 [1]: > 10000 nM
EC50 [2]: 900 nM
EC50 [3]: 600 nM

CCOc1ccc(NC(=O)C23CC4CC(CC(C4)C2)C3)cc1
EC50 [1]: > 10000 nM
EC50 [3]: 1200 nM

CC(=O)c1ccccc1NC(=O)C12CC3CC(CC(C3)C1)C2
EC50 [1]: > 10000 nM
EC50 [3]: 100 nM

CCOC(=O)c1ccccc1NC(=O)C12CC3CC(CC(C3)C1)C2
EC50 [1]: > 10000 nM
EC50 [2]: 76 nM
EC50 [3]: 15 nM

COC(=O)c1cccc(NC(=O)C23CC4CC(CC(C4)C2)C3)c1
EC50 [1]: > 10000 nM
EC50 [3]: > 10000 nM

O=C(NC12CC3CC(CC(C3)C1)C2)c1nn(CCN2CCOCC2)c2ccccc12
Ki [4]: 6.8 nM
Ki [5]: 0.15 nM

COC1CCN(C(=O)C23CC4CC(CC(C4)C2)C3)c2ccccc21 (stereo not given)
Fh [6]: 12%
Papp [7]: 4.6 ×10⁻⁶ cm/s
Papp [8]: 3.3 ×10⁻⁶ cm/s
logD [9]: 3.79
solubility [10]: 10 µg/mL (≈ 30.7 µM)
EC50 [11]: > 10000 nM
Ki [12]: 5200 nM
Ki [13]: 770 nM
EC50 [14]: 78 nM
EC50 [15]: 23 nM
EC50 [1]: > 10000 nM
EC50 [2]: 1300 nM

CCOC1CCN(C(=O)C23CC4CC(CC(C4)C2)C3)c2ccccc21 (stereo not given)
Fh [6]: 6%
Papp [7]: 0.9 ×10⁻⁶ cm/s
Papp [8]: 0.7 ×10⁻⁶ cm/s
logD [9]: 4.09
solubility [10]: 17 µg/mL (≈ 50.1 µM)
EC50 [11]: 5000 nM
Ki [12]: > 10000 nM
Ki [13]: 990 nM
EC50 [15]: 28 nM
EC50 [1]: > 10000 nM
EC50 [3]: 1.8 nM

COCCOC1CCN(C(=O)C23CC4CC(CC(C4)C2)C3)c2ccccc21 (stereo not given)
Fh [6]: 5%
Papp [7]: 5.7 ×10⁻⁶ cm/s
Papp [8]: 4.4 ×10⁻⁶ cm/s
logD [9]: 3.82
solubility [10]: 97 µg/mL (≈ 263 µM)
EC50 [11]: > 10000 nM
Ki [12]: 1500 nM
Ki [13]: 350 nM
EC50 [14]: 24 nM
EC50 [15]: 20 nM
EC50 [1]: > 10000 nM
EC50 [2]: 900 nM
EC50 [3]: 20 nM

CN1CCN(C(=O)C23CC4CC(CC(C4)C2)C3)c2ccccc21
Fh [6]: 10%
logD [9]: 4.09
solubility [10]: < 1 µg/mL
EC50 [11]: > 10000 nM
Ki [12]: 2800 nM
Ki [13]: 500 nM
EC50 [14]: 71 nM
EC50 [15]: 22 nM
EC50 [1]: > 10000 nM
EC50 [2]: > 10000 nM
EC50 [3]: 29 nM

O=C(N1CCc2ccccc21)C12CC3CC(CC(C3)C1)C2
Fh [6]: 45%
Papp [7]: 2 ×10⁻⁶ cm/s
Papp [8]: 0.4 ×10⁻⁶ cm/s
solubility [10]: < 1 µg/mL
EC50 [11]: > 10000 nM
Ki [12]: > 10000 nM
Ki [13]: 460 nM
EC50 [15]: 26 nM
EC50 [1]: > 10000 nM
EC50 [2]: 220 nM

O=C(N1Cc2ccccc2C1)C12CC3CC(CC(C3)C1)C2
Fh [6]: 51%
Papp [7]: 14 ×10⁻⁶ cm/s
Papp [8]: 0.5 ×10⁻⁶ cm/s
solubility [10]: < 1 µg/mL
EC50 [11]: > 10000 nM
Ki [12]: 900 nM
Ki [13]: 500 nM
EC50 [15]: 7 nM
EC50 [1]: > 10000 nM
EC50 [2]: 600 nM

O=C(N1CCCCc2ccccc21)C12CC3CC(CC(C3)C1)C2
EC50 [15]: > 10000 nM
EC50 [3]: > 10000 nM

CC1(C)CN(C(=O)C23CC4CC(CC(C4)C2)C3)c2ccccc21
Fh [6]: 39%
solubility [10]: < 1 µg/mL
EC50 [11]: > 10000 nM
Ki [12]: 4900 nM
Ki [13]: 500 nM
EC50 [14]: 36 nM
EC50 [15]: 40 nM
EC50 [1]: > 10000 nM
EC50 [2]: 900 nM
EC50 [3]: 16 nM

Cc1cccc2c1CCN2C(=O)C12CC3CC(CC(C3)C1)C2
Fh [6]: 46%
solubility [10]: < 1 µg/mL
EC50 [11]: > 10000 nM
Ki [12]: 1300 nM
Ki [13]: 170 nM
EC50 [14]: 11 nM
EC50 [15]: 7 nM
EC50 [1]: > 10000 nM
EC50 [2]: 290 nM
EC50 [3]: 4 nM

O=C(N1CCc2cc(F)ccc21)C12CC3CC(CC(C3)C1)C2
Fh [6]: 52%
Papp [7]: 4.7 ×10⁻⁶ cm/s
Papp [8]: 2.3 ×10⁻⁶ cm/s
solubility [10]: < 1 µg/mL
EC50 [11]: > 6000 nM
Ki [12]: 2400 nM
Ki [13]: 200 nM
EC50 [15]: 9 nM
EC50 [1]: > 10000 nM
EC50 [2]: 200 nM

O=C(N1CCc2ccc(C(F)(F)F)cc21)C12CC3CC(CC(C3)C1)C2
Fh [6]: 36%
solubility [10]: < 1 µg/mL
EC50 [11]: > 10000 nM
Ki [12]: 2800 nM
Ki [13]: 2500 nM
EC50 [14]: 49 nM
EC50 [15]: 2.9 nM
EC50 [1]: > 10000 nM
EC50 [2]: 750 nM
EC50 [3]: 15 nM

Cc1cccc2c1N(C(=O)C13CC4CC(CC(C4)C1)C3)CC2
Fh [6]: 51%
solubility [10]: < 1 µg/mL
EC50 [11]: > 10000 nM
Ki [12]: > 10000 nM
Ki [13]: 600 nM
EC50 [14]: 81 nM
EC50 [15]: 50 nM
EC50 [1]: > 10000 nM
EC50 [2]: 1600 nM
EC50 [3]: 55 nM

O=C(NC12CC3CC(CC(C3)C1)C2)N1Cc2ccccc2C1
Fh [6]: 37%
Papp [7]: 26 ×10⁻⁶ cm/s
Papp [8]: 12 ×10⁻⁶ cm/s
logD [9]: 4.26
solubility [10]: < 1 µg/mL
EC50 [11]: > 10000 nM
Ki [12]: 400 nM
Ki [13]: 270 nM
EC50 [14]: 27 nM
EC50 [15]: 19 nM
EC50 [1]: > 10000 nM
EC50 [2]: 700 nM

O=C(N1CCc2ccccc21)C12CC3CC(CC1C3)C2
Fh [6]: 55%
Papp [7]: 0.5 ×10⁻⁶ cm/s
Papp [8]: 1.9 ×10⁻⁶ cm/s
logD [9]: 3.7
solubility [10]: < 1 µg/mL
EC50 [11]: > 10000 nM
Ki [12]: > 10000 nM
Ki [13]: 500 nM
EC50 [15]: 51 nM
EC50 [1]: > 10000 nM
EC50 [2]: 900 nM
EC50 [3]: 22 nM

O=C(C1C2CC3CC(C2)CC1C3)N1CCc2ccccc21 (stereo not given)
Fh [6]: 37%
Papp [7]: 5 ×10⁻⁶ cm/s
Papp [8]: 0.1 ×10⁻⁶ cm/s
solubility [10]: < 1 µg/mL
EC50 [11]: > 10000 nM
Ki [12]: 2200 nM
Ki [13]: 320 nM
EC50 [14]: 11 nM
EC50 [15]: 20 nM
EC50 [1]: > 10000 nM
EC50 [2]: 160 nM
EC50 [3]: 7 nM

O=C(N1CCc2ccccc21)C12CC3CC(CC(O)(C3)C1)C2
Fh [6]: 90%
Papp [7]: 25 ×10⁻⁶ cm/s
Papp [8]: 10.3 ×10⁻⁶ cm/s
logD [9]: 2.77
solubility [10]: > 318 µg/mL
EC50 [14]: 531 nM
EC50 [15]: 1000 nM
EC50 [1]: > 10000 nM
EC50 [2]: 2600 nM

O=C(N1CCCc2ccccc21)C12CC3CC(CC(C3)C1)C2
Fh [6]: 23%
solubility [10]: < 1 µg/mL
EC50 [11]: > 10000 nM
Ki [12]: 4300 nM
Ki [13]: 790 nM
EC50 [14]: 55 nM
EC50 [15]: 126 nM
EC50 [1]: > 10000 nM
EC50 [2]: > 10000 nM
